“Also recorded” adds a separate entry of the source.
Tests used:
[1] = Phase 1 MAD CSF concentration of CT1812; type: in vivo, human; details: for receptor occupancy associated with CSF CT1812 levels: extrapolated from transgenic mouse brain; for concentration at 1.5 h: human, cerebrospinal fluid, oral, 1.5 hr post dose, Day 7 to Day 9
Source text: CT1812 was quantitated in CSF using a validated LC-MS/MS method.

[2] = Phase 1 MAD cognitive testing in healthy elderly cohort; type: in vivo, human
Description: The Alzheimer's Disease Assessment Scale-Cognition Subscale (ADAS-Cog 13) and a cognitive battery (including the category fluency test, controlled word association test, WMS-R digit span, digit symbol substitution test, and Rey Auditory Verbal Learning Test) were administered to subjects in the elderly cohort at baseline and on Day 14.

[3] = Phase 1 SAD safety (adverse events, laboratory, ECG); type: in vivo, human
Description: Part A was a single ascending dose cohort study in which healthy, young subjects (less than 65 years old) received one dose of study drug in the morning after an overnight fast. Cohort dosing started at 10 mg and increased to 30 mg, 90 mg, 180 mg, 450 mg, and 1120 mg in subsequent cohorts. Six drug-treated and two placebo-treated subjects were randomized in each cohort. A seventh cohort of six subjects each received a single 90 mg dose of drug 30 min. after a meal. Following completion of all safety assessments and blood draws for PK analyses, subjects were discharged on Day 3.
Safety variables, including incidence of adverse events (AEs), vital signs, clinical laboratory findings, 12-lead electrocardiographs (ECGs), physical examination, and affective and cognitive measures (Part B only), were summarized for all subjects who received study drug.

[4] = test system: Aβ oligomers bound to neuronal receptors; assay: Aβ oligomer binding to / displacement from neuronal receptors; type: cell-based
[5] = COG0102 pharmacokinetics: plasma and CSF concentrations, estimated brain receptor occupancy; type: in vivo, human; details: 90-560 mg
Description: This trial (ClinicalTrials.gov NCT02907567) was a randomized, double-blind, placebo-controlled clinical trial in mild to moderate Alzheimer's patients (MMSE 18-26) (See FIG. 1 for clinical trial design). The trial was conducted at six sites in Australia. Patients were randomized into placebo (n=5) or CT1812-treated groups: 90 mg (n=4), 280 mg (n=5) or 560 mg (n=5) and treated once daily for 28 days. Clinical chemistry was done at Sydpath (Sydney, AU). Pharmacokinetics were done at CPR Pharma Services (Adelaide, AU). Cerebrospinal fluid samples were taken at screening and day 21-28 of treatment and aliquoted. […] One set of CSF samples was analyzed for Alzheimer's disease biomarkers; protein measurements (Aβ42, A1340, total tau, tau phosphorylated at threonine 181 (phosphorylated tau), NFL and neurogranin) were performed using commercially available ELISA assays from Fujirebio according to the manufacturer's instructions (INNOTEST β-AMYLOID(1-42), INNOTEST β-AMYLOID(1-40), INNOTEST hTau Ag, INNOTEST PHOSPHO-TAU(181P), Uman Diagnostics NFL assay). Neurogranin was measured with a sandwich ELISA method using antibodies Ng2 and Ng22 developed at the University of Gotteborg (Kvartsberg et al. 2015). Identical aliquots of CSF, and plasma were analyzed for protein expression changes via LC/MSMS at Caprion (see below).

[6] = test system: aged transgenic mouse models of AD; assay: Aged transgenic mouse models of AD (cognition, synapses, CSF proteins); type: in vivo
[7] = test system: neurogranin, Aβ, tau, NFL in CSF; assay: CSF Alzheimer's disease biomarkers by ELISA (COG0102); type: in vivo, human; details: for neurogranin reduced: 28 days
Description: This trial (ClinicalTrials.gov NCT02907567) was a randomized, double-blind, placebo-controlled clinical trial in mild to moderate Alzheimer's patients (MMSE 18-26) (See FIG. 1 for clinical trial design). The trial was conducted at six sites in Australia. Patients were randomized into placebo (n=5) or CT1812-treated groups: 90 mg (n=4), 280 mg (n=5) or 560 mg (n=5) and treated once daily for 28 days. Clinical chemistry was done at Sydpath (Sydney, AU). Pharmacokinetics were done at CPR Pharma Services (Adelaide, AU). Cerebrospinal fluid samples were taken at screening and day 21-28 of treatment and aliquoted. Plasma samples were taken at screening or Day 1 (one sample) and day 14-28, then spun down to separate plasma and aliquoted. One set of CSF samples was analyzed for Alzheimer's disease biomarkers; protein measurements (Aβ42, A1340, total tau, tau phosphorylated at threonine 181 (phosphorylated tau), NFL and neurogranin) were performed using commercially available ELISA assays from Fujirebio according to the manufacturer's instructions (INNOTEST β-AMYLOID(1-42), INNOTEST β-AMYLOID(1-40), INNOTEST hTau Ag, INNOTEST PHOSPHO-TAU(181P), Uman Diagnostics NFL assay). Neurogranin was measured with a sandwich ELISA method using antibodies Ng2 and Ng22 developed at the University of Gotteborg (Kvartsberg et al. 2015). Identical aliquots of CSF, and plasma were analyzed for protein expression changes via LC/MSMS at Caprion (see below).

For `CC(C)(C)Oc1cc(CCC(C)(C)N2Cc3ccc(S(C)(=O)=O)cc3C2)ccc1O` [CT1812], the “receptor occupancy associated with CSF CT1812 levels” value ([1]; 560 mg dose) was 95%, the “projected receptor occupancy at average CSF concentrations” value ([1]; 560 mg-840 mg dose range, 1.5 hr post-dose, equivalent mouse brain concentration) was 97-98% and the “receptor occupancy associated with CSF CT1812 levels” value ([1]; 840 mg dose) was 98%. For the same compound, the “CSF CT1812 concentration vs dose” value ([1]; MAD 560 and 840 mg, at peak plasma concentrations) was “dose-dependent manner; also recorded: dose-dependent increases”, the “blood-brain barrier penetration in humans” value ([1]; from CT1812 levels in CSF) was “penetrates the blood-brain barrier” and the concentration at 1.5 h ([1]; 560 mg daily) was 8 ng/mL. For the same compound, the concentration at 1.5 h ([1]; 840 mg daily) was 23.3 ng/mL, the “cognitive scores before vs after treatment” value ([2]; healthy elderly cohort, 560 mg, day zero vs day 14) was “similar” and the “COWAT (Trial 2), Mean (SD)” value ([2]; healthy elderly, 560 mg for 14 days (N = 7), Day 14, Day 0: 9.6 (4.2)) was 10.6 (5.1). For the same compound, the “COWAT (Trial 1), Mean (SD)” value ([2]; healthy elderly, 560 mg for 14 days (N = 7), Day 14, Day 0: 11.3 (5.7)) was 12.6 (4.5), the “COWAT (Trial 3), Mean (SD)” value ([2]; healthy elderly, 560 mg for 14 days (N = 7), Day 14, Day 0: 14.6 (5.7)) was 15.1 (3.7) and the “RAVLT, Mean (SD)” value ([2]; healthy elderly, 560 mg for 14 days (N = 7), Day 14, Day 0: 17.3 (3.9)) was 18.7 (3.1). For the same compound, the “WMS-R (Digit Span), Mean (SD)” value ([2]; healthy elderly, 560 mg for 14 days (N = 7), Day 14, Day 0: 17.9 (3.3)) was 17.9 (3.3), the “CFT, Mean (SD)” value ([2]; healthy elderly, 560 mg for 14 days (N = 7), Day 14, Day 0: 18.4 (5.5)) was 19.7 (2.4) and the “DSST, Mean (SD)” value ([2]; healthy elderly, 560 mg for 14 days (N = 7), Day 14, Day 0: 78.3 (11.0)) was 80 (9.6). The “ECG parameters or changes” value ([3]; SAD) was “No ECG parameters or changes were assessed as clinically significant”, the “deaths or serious adverse events” value ([3]; SAD) was “no deaths or other serious adverse events” and the “All TEAEs, number of subjects” value ([3]; SAD Total Active (n = 42)) was 18. For the same compound, the “Headache, % of subjects” value ([3]; SAD Total Active (n = 42)) was “(14%)”, the “Headache, number of subjects” value ([3]; SAD Total Active (n = 42)) was 6 and the “Nausea, % of subjects” value ([3]; SAD Total Active (n = 42)) was “(14%)”. The “Nausea, number of subjects” value ([3]; SAD Total Active (n = 42)) was 6, the “All TEAEs, % of subjects” value ([3]; single 10 mg fasted (n = 6)) was “(33%)” and the “All TEAEs, number of subjects” value ([3]; single 10 mg fasted (n = 6)) was 2. For the same compound, the “Headache, % of subjects” value ([3]; single 10 mg fasted (n = 6)) was “(50%)”, the “Headache, number of subjects” value ([3]; single 10 mg fasted (n = 6)) was 3 and the “Nausea, % of subjects” value ([3]; single 10 mg fasted (n = 6)) was “(17%)”. The “Nausea, number of subjects” value ([3]; single 10 mg fasted (n = 6)) was 1, the “All TEAEs, % of subjects” value ([3]; single 30 mg fasted (n = 6)) was “(67%)” and the “All TEAEs, number of subjects” value ([3]; single 30 mg fasted (n = 6)) was 4. The “All TEAEs, % of subjects” value ([3]; single 90 mg fed (n = 6)) was “(33%)”, the “All TEAEs, number of subjects” value ([3]; single 90 mg fed (n = 6)) was 2 and the “Headache, % of subjects” value ([3]; single 90 mg fed (n = 6)) was “(17%)”. For the same compound, the “Headache, number of subjects” value ([3]; single 90 mg fed (n = 6)) was 1, the “All TEAEs, % of subjects” value ([3]; single 180 mg fasted (n = 6)) was “(33%)” and the “All TEAEs, number of subjects” value ([3]; single 180 mg fasted (n = 6)) was 2. The “All TEAEs, % of subjects” value ([3]; single 450 mg fasted (n = 6)) was “(67%)”, the “All TEAEs, number of subjects” value ([3]; single 450 mg fasted (n = 6)) was 4 and the “Headache, % of subjects” value ([3]; single 450 mg fasted (n = 6)) was “(17%)”. For the same compound, the “Headache, number of subjects” value ([3]; single 450 mg fasted (n = 6)) was 1, the “Nausea, % of subjects” value ([3]; single 450 mg fasted (n = 6)) was “(33%)” and the “Nausea, number of subjects” value ([3]; single 450 mg fasted (n = 6)) was 2. For the same compound, the “All TEAEs, % of subjects” value ([3]; single 1120 mg fasted (n = 6)) was “(67%)”, the “All TEAEs, number of subjects” value ([3]; single 1120 mg fasted (n = 6)) was 4 and the “Headache, % of subjects” value ([3]; single 1120 mg fasted (n = 6)) was “(17%)”. The “Headache, number of subjects” value ([3]; single 1120 mg fasted (n = 6)) was 1, the “Nausea, % of subjects” value ([3]; single 1120 mg fasted (n = 6)) was “(50%)” and the “Nausea, number of subjects” value ([3]; single 1120 mg fasted (n = 6)) was 3. The “tolerability, single dose” value ([3]; single dose 10 mg to 1120 mg, healthy young subjects) was “safe and well tolerated”, the “displacement of Aβ oligomers from neuronal/synaptic receptors” value [4] was “displaces amyloid beta (Aβ) oligomers from neuronal receptors; also recorded: displace oligomers from synaptic receptor sites; also recorded: prevents and displaces binding of Aβ oligomers to neurons” and the “plasma CT1812 concentration vs dose” value ([5]; day 28) was “increased approximately dose proportionally”. For the same compound, the “CSF CT1812 concentration vs dose” value ([5]; days 22-30) was “dose dependent increase”, the “cognitive performance / memory” value ([6]; aged transgenic mouse models of AD) was “restoring normal cognitive performance; also recorded: restores cognitive function; also recorded: restores memory to normal” and the “inflammatory protein expression in CSF” value ([6]; chronic treatment of aged transgenic mice, efficacious doses, LC/MSMS) was “significantly reduces”. For the same compound, the neurogranin reduced ([7]; 90 mg dose group) was 33%, the “Neurogranin, With CT1812” value ([7]; ELISA, direction of change) was “reduced and decreased and ↓*” and the “Aβ, tau and NFL biomarker levels” value ([7]; before and after treatment) was “remain unchanged”. The neurogranin reduced ([7]; pooled CT1812-treated group) was 17.6%.

— patent publication US20200338045A1, “ISOINDOLINE COMPOSITIONS AND METHODS FOR TREATING NEURODEGENERATIVE DISEASE” (priority 2017, published 2020)
